Read-outs that look alike come from different tables or passages of the source.
Experiments:
[1] = log P by HPLC on reversed-phase (C18) columns, OECD Guideline 117; format: physicochemical; conditions: reversed-phase (C18) HPLC column
Procedure: Calibration is carried out using unbranched alkan-2-ones (having 3 to 16 carbon atoms) with known log P values (log P values determined on the basis of the retention times by linear interpolation between two successive alkanones).

Myzus persicae = Myzus persicae - spray test; format: in vivo; conditions: foliar, 144 h, application rate 500 g/ha, sprayed Chinese cabbage leaf discs (Brassica pekinensis) infested by all stages, after 6 days, read-out: efficacy in % (100% = all aphids killed)
Procedure: Myzus persicae—Spray Test
Solvent: 78 parts by weight of acetone • • 1.5 parts by weight of dimethylformamide
Emulsifier: alkylaryl polyglycol ether
To produce further test concentrations, the formulation is diluted with emulsifier-containing water.
After 6 days, the efficacy in % is determined. 100% means that all the aphids have been killed; 0% means that no aphids have been killed.

[2] = acidic range, pH 2.7, 0.1% aqueous formic acid and acetonitrile as eluents, read-out: logP [a]
[3] = neutral range, pH 7.8, 0.001 molar aqueous ammonium hydrogencarbonate solution and acetonitrile as eluents, read-out: logP [b]

Compound | chromatographic logP [1, 2] | pest or weed control at 500 g/ha (Myzus persicae) | chromatographic logP [1, 3]
CN(C(=O)C1CCS(=O)(=O)C1)c1cc2sc(-c3cccnc3)nc2cn1 (stereo not shown) [Example 10] | 1.37 | 90% | 
Cc1cc(F)c(-c2cc3sc(-c4cccnc4)nc3cn2)cc1[S+]([O-])CC(F)(F)F (stereo not shown) [Example 2, 6-[2-Fluoro-4-methyl-5-(2,2,2-trifluoroethylsulphinyl)phenyl]-2-(3-pyridyl)thiazolo [4,5-c]pyridine] | 2.8 |  | 2.77
Cc1ccc(-c2cc3sc(-c4cccnc4)nc3cn2)cc1[S+]([O-])CC(F)(F)F (stereo not shown) [Example 5] | 2.79 |  | 2.74
CN(C(=O)CCS(C)(=O)=O)c1cc2sc(-c3cccnc3)nc2cn1 [Example 17, N-Methyl-3-(methylsulphonyl)-N-[2-(pyridin-3-yl) [1,3]thiazolo[4,5-c]pyridin-6-yl]propanamide] | 1.25 | 90% | 
O=C(Nc1cccc(S(=O)(=O)C(F)(F)F)c1)c1cc2sc(-c3cccnc3)nc2cn1 [Example 19] | 2.09 |  | 
CN(C(=O)c1cccc([S+]([O-])C(F)(F)F)c1)c1cc2sc(-c3cccnc3)nc2cn1 (stereo not shown) [Example 22] | 2.21 | 90% | 
CNC(=O)c1cc2sc(-c3cccnc3)nc2cn1 [Example 20] | 1.35 |  | 
FC(F)(F)c1ccn(-c2cc3sc(-c4cccnc4)nc3cn2)n1 [Example 26, 2-(Pyridin-3-yl)-6-[3-(trifluoromethyl)-1H-pyrazol-1-yl][1,3]thiazolo[4,5-c]pyridine] | 3.66 |  | 3.68
O=C(Nc1cc2sc(-c3cccnc3)nc2cn1)c1cccc([S+]([O-])C(F)(F)F)c1 (stereo not shown) [Example 28] | 2.61 |  | 
CN(C(=O)c1cccc(SC(F)(F)F)c1)c1cc2sc(-c3cccnc3)nc2cn1 [Example 7] | 3.3 | 90% | 
Cc1cc(F)c(-c2cc3sc(-c4cccnc4)nc3cn2)cc1SCC(F)(F)F [Example 1, 6-[2-Fluoro-4-methyl-5-(2,2,2-trifluoroethylsulphanyl)phenyl]-2-(3-pyridyl)thiazolo [4,5-c]pyridine] | 4.45 | 90% | 4.41
CCN(C)C(=O)c1cc2sc(-c3cccnc3)nc2cn1 [Example 21] | 1.52 | 90% | 
c1cncc(-c2nc3cnc(N4CCOCC4)cc3s2)c1 [Example 4, 4-[2-(3-Pyridyl)thiazolo[4,5-c]pyridin-6-yl]morpholine] | 1.73 | 90% | 1.94
O=C(Nc1cccc([S+]([O-])C(F)(F)F)c1)c1cc2sc(-c3cccnc3)nc2cn1 (stereo not shown) [Example 14] | 2.99 |  | 
Cc1ccc(-c2cc3sc(-c4cccnc4)nc3cn2)cc1SCC(F)(F)F [Example 25] | 4.32 |  | 4.21
O=C(Nc1cccc(SC(F)(F)F)c1)c1cc2sc(-c3cccnc3)nc2cn1 [Example 11] | 4.33 |  | 
Clc1cc2sc(-c3cccnc3)nc2cn1 [Example 24, 6-Chloro-2-(3-pyridyl)thiazolo[4,5-c]pyridine] | 1.89 |  | 
CS(=O)(=O)CCC(=O)Nc1cc2sc(-c3cccnc3)nc2cn1 [Example 29] | 1.17 |  | 
FC(F)(F)c1cc2sc(-c3cccnc3)nc2cn1 [Example 3, 2-(3-Pyridyl)-6-(trifluoromethyl)thiazolo[4,5-c]pyridine] | 2.32 |  | 2.32
c1ccc(-c2cc3sc(-c4cccnc4)nc3cn2)nc1 [Example 6, 6-(2-Pyridyl)-2-(3-pyridyl)thiazolo[4,5-c]pyridine] | 1.68 |  | 2.38
c1cncc(-c2nc3cnc(N4CCCC4)cc3s2)c1 [Example 27, 2-(Pyridin-3-yl)-6-(pyrrolidin-1-yl)[1,3]thiazolo[4,5-c]pyridine] | 1.38 |  | 2.61
CS(=O)(=O)CCNC(=O)c1cc2sc(-c3cccnc3)nc2cn1 [Example 30] | 1.23 |  | 
CN(C(=O)c1cccc(S(=O)(=O)C(F)(F)F)c1)c1cc2sc(-c3cccnc3)nc2cn1 [Example 18] | 1.54 | 100% | 
